Measured values as given in patent US12030884B2, “Pyrazoloquinoline KRAS inhibitors” (INCYTE CORPORATION, priority 2021, dated 2024).

Tests used:
[1] = system: pERK1/2 in MIA PaCa-2 cells (KRAS G12C); assay: Whole blood pERK1/2 HTRF assay (KRAS_G12C WB pERK assay); assay type: cell-based; details: Homo sapiens, compound in whole blood, 4 hours, read-out: G12C_WB_pERK
Method: MIA PaCa-2 cells (KRAS G12C; ATCC® CRL-1420), HPAF-II (KRAS G12D; ATCC® CRL-1997) and YAPC (KRAS G12V; DSMZ ACC382) are maintained in RPMI 1640 with 10% FBS (Gibco/Life Technologies). For MIA PaCa-2 assay, cells are seeded into 96 well tissue culture plates (Corning #3596) at 25000 cells per well in 100 uL media and cultured for 2 days at 37° C., 5% CO2 before the assay. For HPAF-II and YAPC assay, cells are seeded in 96 well tissue culture plates at 50000 cells per well in 100 uL media and cultured for 1 day before the assay. Whole Blood are added to the 1 uL dots of compounds (prepared in DMSO) in 96 well plates and mixed gently by pipetting up and down so that the concentration of the compound in blood is 1× of desired concentration, in 0.5% DMSO. The media is aspirated from the cells and 50 uL per well of whole blood with test compound is added and incubated for 4 hours for MIA PaCa and YAPC assay; or 2 hours for HPAF-II assay, respectively at 37° C., 5% CO2. After dumping the blood, the plates are gently washed twice by adding PBS to the side of the wells and dumping the PBS from the plate onto a paper towel, tapping the plate to drain well. Fifty ul/well of 1×lysis buffer #1 (Cisbio) with blocking reagent (Cisbio) and Benzonase nuclease (Sigma Cat #E1014-5KU, 1: 10000 final concentration) is then added and incubated at room temperature for 30 minutes with shaking (250 rpm). Following lysis, 16 uL of lysate is transferred into 384-well Greiner small volume white plate using an Assist Plus (Integra Biosciences, NH). Four uL of 1:1 mixture of anti Phospho-ERK 1/2 d2 and anti Phospho-ERK 1/2 Cryptate (Cisbio) is added to the wells using the Assist Plus and incubated at room temperature overnight in the dark. Plates are read on the Pherastar plate reader at 665 nm and 620 nm wavelengths. Data are analyzed in Genedata Screener using SmartFit for IC50 values.

[2] = Human whole blood stability; assay type: in vitro ADME; details: percent remaining, 1 μM, 37° C.
Method: The whole blood stability of the exemplified compounds was determined by LC-MS/MS. The 96-Well Flexi-Tier™ Block (Analytical Sales & Services, Inc, Flanders, NJ) was used for the incubation plate containing 1.0 mL glass vials with 0.5 mL of blood per vial (pooled gender, human whole blood sourced from BIOIVT, Hicksville, NY or similar). Blood was pre-warmed in water bath to 37° C. for 30 minutes. 96-deep well analysis plate was prepared with the addition of 100 μL ultrapure water/well. 50 μL chilled ultrapure water/well was added to 96-deep well sample collection plate and covered with a sealing mat. 1 μL of 0.5 mM compound working solution (DMSO:water) was added to the blood in incubation plate to reach final concentrations of 1 μM, mixed by pipetting thoroughly and 50 μL was transferred 50 into the T=0 wells of the sample collection plate. Blood was allowed to sit in the water for 2 minutes and then 400 μL stop solution/well was added (acetonitrile containing an internal standard). The incubation plate was placed in the Incu-Shaker CO2 Mini incubator (Benchmark Scientific, Sayreville, NJ) at 37° C. with shaking at 150 rpm. At 1, 2 and 4-hr, the blood samples were mixed thoroughly by pipetting and 50 μL is transferred into the corresponding wells of the sample collection plate. Blood was allowed to sit in the water for 2 minutes and then 400 μL of stop solution/well was added. The collection plate was sealed and vortexed at 1700 rpm for 3 minutes (VX-2500 Multi-Tube Vortexer, VWR International, Radnor, PA), and samples were then centrifuged in the collection plate at 3500 rpm for 10 minutes (Allegra X-14R Centrifuge Beckman Coulter, Indianapolis, IN). 100 μL of supernatant/well was transferred from the sample collection plate into the corresponding wells of the analysis plate. The final plate was vortexed at 1700 rpm for 1 minute and analyze samples by LC-MS/MS. The peak area ratio of the 1, 2, and 4 hr samples relative to T=0 was used to determine the percent remaining. The natural log of the percent remaining versus time was used determine a slope to calculate the compounds half-life in blood (t1/2=0.693/slope).

[3] = system: pERK in KRAS G12C cells (MIA PaCa-2, NCI-H358); assay: Cellular pERK HTRF assay (KRAS_G12C pERK assay); assay type: cell-based; details: 4 hours incubation, read-out: G12C_pERK
Method: MIA PaCa-2 (KRAS G12C; ATCC® CRL-1420), NCI-H358 (KRAS G12C; ATCC® CRL-5807), A427 (KRAS G12D; ATCC® HTB53), HPAFII (KRAS G12D; ATCC® CRL-1997), YAPC (KRAS G12V; DSMZ ACC382), SW480 (KRAS G12V; ATCC® CRL-228) and NCI-H838 (KRAS WT; ATCC® CRL-5844) cells are purchased from ATCC and maintained in RPMI 1640 media supplemented with 10% FBS (Gibco/Life Technologies). The cells are plated at 5000 cells per well (8 uL) into Greiner 384-well low volume, flat-bottom, and tissue culture treated white plates and incubated overnight at […], 5% CO2. The next morning, test compound stock solutions are diluted in media at 3× the final concentration and 4 uL are added to the cells, with a final concentration of 0.1% of DMSO. The cells are incubated with the test compounds for 4 hours (G12C and G12V) or 2 hrs (G12D) at 37° C., 5% CO2. Four uL of 4×lysis buffer with blocking reagent (Cisbio) are added to each well and plates are rotated gently (300 rpm) for 30 minutes at room temperature. Four uL per well of Cisbio anti Phospho-ERK 1/2 d2 is mixed with anti Phospho-ERK 1/2 Cryptate (1:1), and added to each well, incubated overnight in the dark at room temperature. Plates are read on the Pherastar plate reader at 665 nm and 620 nm wavelengths. Data are analyzed in Genedata Screener using SmartFit for IC50 values.

[4] = molecular target: KRAS G12C (Homo sapiens, UniProt P01116, G12C); assay: GDP-GTP exchange assay (KRAS_G12C exchange assay); assay type: biochemical; details: bodipy-loaded KRAS G12C, SOS1, GppNHp; 2 hours pre-incubation with inhibitor; read-out: G12C_exchange
Sequence of KRAS G12C (P01116 1-188 isoform P01116-2 G12C): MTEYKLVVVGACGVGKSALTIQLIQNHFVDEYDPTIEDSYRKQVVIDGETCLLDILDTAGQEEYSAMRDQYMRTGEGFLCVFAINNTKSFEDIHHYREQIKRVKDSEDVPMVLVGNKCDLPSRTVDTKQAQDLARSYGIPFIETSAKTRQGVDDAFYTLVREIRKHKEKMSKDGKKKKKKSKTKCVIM
Method: The inhibitor potency of the exemplified compounds was determined in a fluorescence based guanine nucleotide exchange assay, which measures the exchange of bodipy-GDP (fluorescently labeled GDP) for GppNHp (Non-hydrolyzable GTP analog) to generate the active state of KRAS in the presence of SOS1 (guanine nucleotide exchange factor). Inhibitors were serially diluted in DMSO and a volume of 0.1 μL was transferred to the wells of a black low volume 384-well plate. 5 μL/well volume of bodipy-loaded KRAS G12C diluted to 5 nM in assay buffer (25 mM Hepes pH 7.5, 50 mM NaCl, 10 mM MgCl2 and 0.01% Brij-35) was added to the plate and pre-incubated with inhibitor for 2 hours at ambient temperature. Appropriate controls (enzyme with no inhibitor or with a G12C inhibitor (AMG-510)) were included on the plate. The exchange was initiated by the addition of a 5 μL/well volume containing 1 mM GppNHp and 300 nM SOS1 in assay buffer. The 10 μL/well reaction concentration of the bodipy-loaded KRAS G12C, GppNHp, and SOS1 were 2.5 nM, 500 uM, and 150 nM, respectively. The reaction plates were incubated at ambient temperature for 2 hours, a time estimated for complete GDP-GTP exchange in the absence of inhibitor. For the KRAS G12D and G12V mutants, similar guanine nucleotide exchange assays were used with 2.5 nM as final concentration for the bodipy loaded KRAS proteins and with 4 hours and 3 hours incubation after adding GppNHp-SOS1 mixture for G12D and G12V respectively. A cyclic peptide described to selectively bind G12D mutant (Sakamoto et al., BBRC 484.3 (2017), 605-611) or internal compounds with confirmed binding were used as positive controls in the assay plates. Fluorescence intensities were measured on a PheraStar plate reader instrument (BMG Labtech) with excitation at 485 nm and emission at 520 nm.
Either GraphPad prism or Genedata Screener SmartFit was used to analyze the data. The IC50 values were derived by fitting the data to a four parameter logistic equation producing a sigmoidal dose-response curve with a variable Hill coefficient.

| SMILES | IC50 [1] [nM] | Human whole blood stability at 4 hr [2] | IC50 [3] [nM] | IC50 [4] [nM] |
| --- | --- | --- | --- | --- |
| CC#CC(=O)N1CC[C@H](n2ncc3c(O[C@@H](C)[C@@H]4CCCN4C)nc4c(F)c(-c5nccc6cccc(C#N)c56)c(Cl)cc4c32)C[C@H]1CC#N (single isomer, unassigned) [Example 1a] | ≤ 100 | ††† (WBS >90%) | ≤ 100 | ≤ 100 |
| CC#CC(=O)N1CC[C@H](n2ncc3c(O[C@@H](C)[C@@H]4CCCN4C)nc4c(F)c(-c5nccc6cccc(C#N)c56)c(Cl)cc4c32)C[C@H]1CC#N (single isomer, unassigned) [Example 1b] | – | – | – | ≤ 100 |
| C=C(F)C(=O)N1CC[C@H](n2ncc3c(O[C@@H](C)[C@@H]4CCCN4C)nc4c(F)c(-c5nccc6cccc(C#N)c56)c(Cl)cc4c32)C[C@H]1CC#N (single isomer, unassigned) [Example 3a] | ≤ 100 | ††† (WBS >90%) | ≤ 100 | ≤ 100 |
| C=C(F)C(=O)N1CC[C@H](n2ncc3c(O[C@@H](C)[C@@H]4CCCN4C)nc4c(F)c(-c5nccc6cccc(C#N)c56)c(Cl)cc4c32)C[C@H]1CC#N (single isomer, unassigned) [Example 3b] | – | – | – | 100 to 1000 |
| C=C(F)C(=O)N1CC[C@H](n2ncc3c(N4CC(N(C)CC)C4)nc4c(F)c(-c5c(C)c(C)cc6[nH]ncc56)c(Cl)cc4c32)C[C@H]1CC#N (single isomer, unassigned) [Example 4a] | ≤ 100 | †† (WBS >70% but ≤90%) | ≤ 100 | ≤ 100 |
| C=C(F)C(=O)N1CC[C@H](n2ncc3c(N4CC(N(C)CC)C4)nc4c(F)c(-c5c(C)c(C)cc6[nH]ncc56)c(Cl)cc4c32)C[C@H]1CC#N (single isomer, unassigned) [Example 4b] | – | – | – | 1000 to 5000 |
| C=C(F)C(=O)N1CC[C@H](n2ncc3c(O[C@@H](C)[C@@H]4CCCN4C)nc4c(F)c(-c5cccc6cccc(C#N)c56)c(Cl)cc4c32)C[C@H]1CC#N (single isomer, unassigned) [Example 5a] | – | – | – | 100 to 1000 |
| C=C(F)C(=O)N1CC[C@H](n2ncc3c(O[C@@H](C)[C@@H]4CCCN4C)nc4c(F)c(-c5cccc6cccc(C#N)c56)c(Cl)cc4c32)C[C@H]1CC#N (single isomer, unassigned) [Example 5b] | ≤ 100 | – | ≤ 100 | ≤ 100 |
| CC#CC(=O)N1CC[C@H](n2ncc3c(O[C@@H](C)[C@@H]4CCCN4C)nc4c(F)c(-c5cccc6cccc(C#N)c56)c(C)cc4c32)C[C@H]1CC#N (single isomer, unassigned) [Example 7] | ≤ 100 | †† (WBS >70% but ≤90%) | ≤ 100 | ≤ 100 |
| COC/C=C/C(=O)N1CC[C@H](n2ncc3c(O[C@@H](C)[C@@H]4CCCN4C)nc4c(F)c(-c5nccc6cccc(C#N)c56)c(Cl)cc4c32)C[C@H]1CC#N [Example 2a, 1-(8-chloro-1-((2S,4S)-2-(cyanomethyl)-1-((E)-4-methoxybut-2-enoyl)piperidin-4-yl)-6-fluoro-4-((S)-1-((S)-1-methylpyrrolidin-2-yl)ethoxy)-1H-pyrazolo[4,3-c]quinolin-7-yl)isoquinoline-8-carbonitrile] | ≤ 100 | ††† (WBS >90%) | ≤ 100 | ≤ 100 |
| COC/C=C/C(=O)N1CC[C@H](n2ncc3c(O[C@@H](C)[C@@H]4CCCN4C)nc4c(F)c(-c5cccc6cccc(C#N)c56)c(Cl)cc4c32)C[C@H]1CC#N [Example 6a, 8-(8-chloro-1-((2S,4S)-2-(cyanomethyl)-1-((E)-4-methoxybut-2-enoyl)piperidin-4-yl)-6-fluoro-4-((S)-1-((S)-1-methylpyrrolidin-2-yl)ethoxy)-1H-pyrazolo[4,3-c]quinolin-7-yl)-1-naphthonitrile] | – | – | – | ≤ 100 |
| COC/C=C/C(=O)N1CC[C@H](n2ncc3c(O[C@@H](C)[C@@H]4CCCN4C)nc4c(F)c(-c5cccc6cccc(C#N)c56)c(Cl)cc4c32)C[C@H]1CC#N [Example 6b, 8-(8-chloro-1-((2S,4S)-2-(cyanomethyl)-1-((E)-4-methoxybut-2-enoyl)piperidin-4-yl)-6-fluoro-4-((S)-1-((S)-1-methylpyrrolidin-2-yl)ethoxy)-1H-pyrazolo[4,3-c]quinolin-7-yl)-1-naphthonitrile] | ≤ 100 | ††† (WBS >90%) | ≤ 100 | – |
